Laboratory results from patent publication US10253015B2, “Pyridinyl quinolinone derivatives as mutant-isocitrate dehydrogenase inhibitors” (FORMA TM2, Inc., priority 2014, dated 2019).

Target: IDH1-R132H recombinant protein (Homo sapiens (Human), UniProt O75874, R132H)
Experiment: IDH1-R132H enzymatic assay
Format: biochemical
Details: inhibition of NADPH consumption, diaphorase/resazurin readout; read-out: Enzyme IDH1 R132H Range IC50
Method: Assays were performed in a 384-well black plate. […] After the plate was centrifuged briefly, an aliquot of 10 μL of 2 mM α-ketoglutarate and 20 μM NADPH solution prepared in assay buffer was then added to each well and the reaction was maintained at 25° C. for 45 minutes. An aliquot of 10 μL of diaphorase solution (0.15 U/mL diaphorase and 30 μM Resazurin in assay buffer) was added to each well. […] The IC50 of a given compound was calculated by fitting the dose response curve of inhibition of NADPH consumption at a given concentration with the four parameter logistic equation.

Sequence of IDH1-R132H recombinant protein (O75874 whole entry R132H): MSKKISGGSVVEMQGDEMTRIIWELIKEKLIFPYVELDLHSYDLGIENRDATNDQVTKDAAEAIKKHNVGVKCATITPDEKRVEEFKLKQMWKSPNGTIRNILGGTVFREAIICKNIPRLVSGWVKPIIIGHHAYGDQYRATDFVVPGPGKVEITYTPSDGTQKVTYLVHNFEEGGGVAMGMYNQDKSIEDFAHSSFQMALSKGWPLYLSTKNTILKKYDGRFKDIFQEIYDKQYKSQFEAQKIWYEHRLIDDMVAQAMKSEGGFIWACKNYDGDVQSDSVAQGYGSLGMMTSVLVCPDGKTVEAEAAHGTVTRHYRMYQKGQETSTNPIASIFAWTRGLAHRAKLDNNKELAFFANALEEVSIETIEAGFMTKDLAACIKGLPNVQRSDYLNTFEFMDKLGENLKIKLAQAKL

SMILES	IC50 [µM]
CC(C)[C@H]1COC(=O)N1c1cccc(N[C@H](C)c2cc3cc(Cl)ccc3[nH]c2=O)n1 [Compound I-20, 6-chloro-3-[(1R)-1-({6-[(4S)-2-oxo-4-(propan-2-yl)-1,3-oxazolidin-3-yl]pyridin-2-yl}amino)ethyl]-1,2-dihydroquinolin-2-one]	> 10
Cc1noc(C)c1-c1ccnc(N[C@@H](C)c2cc3cc(Cl)ccc3[nH]c2=O)c1F [Compound I-54, 6-chloro-3-[(1S)-1-{[4-(dimethyl-1,2-oxazol-4-yl)-3-fluoropyridin-2-yl]amino}ethyl]-1,2-dihydroquinolin-2-one]	> 10
C[C@H](Nc1nccc(-c2ccnn2C2CCCCO2)c1F)c1cc2cc(Cl)ccc2[nH]c1=O (stereo partly drawn) [Compound I-55, 6-chloro-3-[(1S)-1-({3-fluoro-4-[1-(oxan-2-yl)-1H-pyrazol-5-yl]pyridin-2-yl}amino)ethyl]-1,2-dihydroquinolin-2-one]	> 10
CC(C)n1nccc1-c1ccnc(N[C@@H](C)c2cc3cc(Cl)ccc3[nH]c2=O)c1F [Compound I-57, 6-chloro-3-[(1S)-1-({3-fluoro-4-[1-(propan-2-yl)-1H-pyrazol-5-yl]pyridin-2-yl}amino)ethyl]-1,2-dihydroquinolin-2-one]	> 10
N#Cc1ccc(NCc2cc3cc(Cl)ccc3[nH]c2=O)nc1Cl [Compound I-62, 2-chloro-6-{[(6-chloro-2-oxo-1,2-dihydroquinolin-3-yl)methyl]amino}pyridine-3-carbonitrile]	> 10
N#Cc1ccc(NCc2cc3cc(Cl)ccc3[nH]c2=O)nc1N1CCOC1=O [Compound I-63, 6-{[(6-chloro-2-oxo-1,2-dihydroquinolin-3-yl)methyl]amino}-2-(2-oxo-1,3-oxazolidin-3-yl)pyridine-3-carbonitrile]	> 10
CC(C)C1CCCN1c1nc(NCc2cc3cc(Cl)ccc3[nH]c2=O)ccc1C#N (stereo not drawn) [Compound I-64, 6-{[(6-chloro-2-oxo-1,2-dihydroquinolin-3-yl)methyl]amino}-2-[2-(propan-2-yl)pyrrolidin-1-yl]pyridine-3-carbonitrile]	> 10
CC(C)CN(C)c1nc(NCc2cc3cc(Cl)ccc3[nH]c2=O)ccc1C#N [Compound I-65, 6-{[(6-chloro-2-oxo-1,2-dihydroquinolin-3-yl)methyl]amino}-2-[methyl(2-methylpropyl)amino]pyridine-3-carbonitrile]	> 10
COc1nc(NCc2cc3cc(Cl)ccc3[nH]c2=O)ccc1C#N [Compound I-66, 6-{[(6-chloro-2-oxo-1,2-dihydroquinolin-3-yl)methyl]amino}-2-methoxypyridine-3-carbonitrile]	> 10
Cc1cc(C)nc(NCc2cc3cc(Cl)ccc3[nH]c2=O)c1 [Compound I-69, 6-chloro-3-{[(4,6-dimethylpyridin-2-yl)amino]methyl}-1,2-dihydroquinolin-2-one]	1 to 10
COc1ccnc(NCc2cc3cc(Cl)ccc3[nH]c2=O)c1 [Compound I-70, 6-chloro-3-{[(4-methoxypyridin-2-yl)amino]methyl}-1,2-dihydroquinolin-2-one]	1 to 10
O=c1[nH]c2ccc(Cl)cc2cc1CNc1ccc(F)cn1 [Compound I-71, 6-chloro-3-{[(5-fluoropyridin-2-yl)amino]methyl}-1,2-dihydroquinolin-2-one]	1 to 10
N#Cc1ccnc(NCc2cc3cc(Cl)ccc3[nH]c2=O)c1 [Compound I-72, 2-{[(6-chloro-2-oxo-1,2-dihydroquinolin-3-yl)methyl]amino}pyridine-4-carbonitrile]	1 to 10
COC(=O)c1cccc(NCc2cc3cc(Cl)ccc3[nH]c2=O)n1 [Compound I-73, methyl 6-{[(6-chloro-2-oxo-1,2-dihydroquinolin-3-yl)methyl]amino}pyridine-2-carboxylate]	1 to 10
Cc1ccnc(NCc2cc3cc(Cl)ccc3[nH]c2=O)c1 [Compound I-74, 6-chloro-3-{[(4-methylpyridin-2-yl)amino]methyl}-1,2-dihydroquinolin-2-one]	1 to 10
O=c1[nH]c2ccc(Cl)cc2cc1CNc1ccc(Cl)cn1 [Compound I-75, 6-chloro-3-{[(5-chloropyridin-2-yl)amino]methyl}-1,2-dihydroquinolin-2-one]	1 to 10
O=c1[nH]c2ccc(Cl)cc2cc1CNc1cccnc1O [Compound I-76, 6-chloro-3-{[(2-hydroxypyridin-3-yl)amino]methyl}-1,2-dihydroquinolin-2-one]	1 to 10
O=c1[nH]c2ccc(Cl)cc2cc1CNc1ccc(C(F)(F)F)cn1 [Compound I-77, 6-chloro-3-({[5-(trifluoromethyl)pyridin-2-yl]amino}methyl)-1,2-dihydroquinolin-2-one]	> 10
N#Cc1ccc(NCc2cc3cc(Cl)ccc3[nH]c2=O)cn1 [Compound I-78, 5-{[(6-chloro-2-oxo-1,2-dihydroquinolin-3-yl)methyl]amino}pyridine-2-carbonitrile]	> 10
O=c1[nH]c2ccc(Cl)cc2cc1CNc1cc(C(F)(F)F)ccn1 [Compound I-79, 6-chloro-3-({[4-(trifluoromethyl)pyridin-2-yl]amino}methyl)-1,2-dihydroquinolin-2-one]	> 10

Second part, the compound after the results:

IC50 [µM]	SMILES
0.1 to 1	Cc1cc(N2CCOC2=O)cc(N[C@@H](C)c2cc3cc(Cl)ccc3[nH]c2=O)n1 [Compound I-12, 6-chloro-3-[(1S)-1-{[6-methyl-4-(2-oxo-1,3-oxazolidin-3-yl)pyridin-2-yl]amino}ethyl]-1,2-dihydroquinolin-2-one]
0.1 to 1	Cc1c(N2CCOC2=O)ccnc1N[C@@H](C)c1cc2cc(Cl)ccc2[nH]c1=O [Compound I-15, 6-chloro-3-[(1S)-1-{[3-methyl-4-(2-oxo-1,3-oxazolidin-3-yl)pyridin-2-yl]amino}ethyl]-1,2-dihydroquinolin-2-one]
1 to 10	C[C@H](Nc1cc(F)cc(N2CCOC2=O)n1)c1cc2cc(Cl)ccc2[nH]c1=O [Compound I-16, 6-chloro-3-[(1S)-1-{[4-fluoro-6-(2-oxo-1,3-oxazolidin-3-yl)pyridin-2-yl]amino}ethyl]-1,2-dihydroquinolin-2-one]
0.1 to 1	Cc1nc(NC2(c3cc4cc(Cl)ccc4[nH]c3=O)CC2)ccc1C#N [Compound I-31, 6-{[1-(6-chloro-2-oxo-1,2-dihydroquinolin-3-yl)cyclopropyl]amino}-2-methylpyridine-3-carbonitrile]
0.1 to 1	Cc1nc(NC(C)(C)c2cc3cc(Cl)ccc3[nH]c2=O)ccc1C#N [Compound I-32, 6-{[2-(6-chloro-2-oxo-1,2-dihydroquinolin-3-yl)propan-2-yl]amino}-2-methylpyridine-3-carbonitrile]
1 to 10	Cc1cc(NCCO)cc(N[C@@H](C)c2cc3cc(Cl)ccc3[nH]c2=O)n1 [Compound I-33, 6-chloro-3-[(1S)-1-({4-[(2-hydroxyethyl)amino]-6-methylpyridin-2-yl}amino)ethyl]-1,2-dihydroquinolin-2-one]
1 to 10	C[C@H](Nc1cccc(N2CCCS2(=O)=O)n1)c1cc2cc(Cl)ccc2[nH]c1=O [Compound I-35, 2-(6-{[(1S)-1-(6-chloro-2-oxo-1,2-dihydroquinolin-3-yl)ethyl]amino}pyridin-2-yl)-1λ^6,2-thiazolidine-1,1-dione]
1 to 10	C[C@H](Nc1nccc(-n2ccnc2)c1F)c1cc2cc(Cl)ccc2[nH]c1=O [Compound I-37, 6-chloro-3-[(1S)-1-{[3-fluoro-4-(1H-imidazol-1-yl)pyridin-2-yl]amino}ethyl]-1,2-dihydroquinolin-2-one]
1 to 10	Cc1cn(-c2ccnc(N[C@@H](C)c3cc4cc(Cl)ccc4[nH]c3=O)c2F)cn1 [Compound I-38, 6-chloro-3-[(1S)-1-{[3-fluoro-4-(4-methyl-1H-imidazol-1-yl)pyridin-2-yl]amino}ethyl]-1,2-dihydroquinolin-2-one]
1 to 10	C[C@H](Nc1nccc(-c2cccn2C)c1F)c1cc2cc(Cl)ccc2[nH]c1=O [Compound I-42, 6-chloro-3-[(1S)-1-{[3-fluoro-4-(1-methyl-1H-pyrrol-2-yl)pyridin-2-yl]amino}ethyl]-1,2-dihydroquinolin-2-one]
1 to 10	Cc1c(-c2ccnc(N[C@@H](C)c3cc4cc(Cl)ccc4[nH]c3=O)c2F)cnn1C [Compound I-45, 6-chloro-3-[(1S)-1-{[4-(1,5-dimethyl-1H-pyrazol-4-yl)-3-fluoropyridin-2-yl]amino}ethyl]-1,2-dihydroquinolin-2-one]
1 to 10	Cc1cscc1-c1ccnc(N[C@@H](C)c2cc3cc(Cl)ccc3[nH]c2=O)c1F [Compound I-46, 6-chloro-3-[(1S)-1-{[3-fluoro-4-(4-methylthiophen-3-yl)pyridin-2-yl]amino}ethyl]-1,2-dihydroquinolin-2-one]
1 to 10	Cc1n[nH]c(C)c1-c1ccnc(N[C@@H](C)c2cc3cc(Cl)ccc3[nH]c2=O)c1F [Compound I-51, 6-chloro-3-[(1S)-1-{[4-(3,5-dimethyl-1H-pyrazol-4-yl)-3-fluoropyridin-2-yl]amino}ethyl]-1,2-dihydroquinolin-2-one]
1 to 10	N#Cc1ccc(NCc2cc3cc(Cl)ccc3[nH]c2=O)nc1C(F)(F)F [Compound I-60, 6-{[(6-chloro-2-oxo-1,2-dihydroquinolin-3-yl)methyl]amino}-2-(trifluoromethyl)pyridine-3-carbonitrile]
< 0.1	COc1nc(C#N)ccc1NCc1cc2cc(Cl)ccc2[nH]c1=O [Compound I-61, 5-{[(6-chloro-2-oxo-1,2-dihydroquinolin-3-yl)methyl]amino}-6-methoxypyridine-2-carbonitrile]
0.1 to 1	CC(C)c1cccnc1NCc1cc2cc(Cl)ccc2[nH]c1=O [Compound I-68, 6-chloro-3-({[3-(propan-2-yl)pyridin-2-yl]amino}methyl)-1,2-dihydroquinolin-2-one]
